# Patent US10758607B2, “Respiratory syncytial virus having cleavage-resistant G protein and related materials and methods” (The Research Institute at Nationwide Children's Hospital, priority 2015, dated 2020)
# Key:
# [1] = test system: G protein cleavage in RSV virions; test: Virion G protein of rgRSV-L208A grown in Vero cells (immunoblot); format: cell-based; details: purified through sucrose
# Description: To test the infectivity of Vero-derived virus with an uncleavable G in HAE cultures, the L208A mutation was incorporated into the whole virus. rgRSV and rgRSV-L208A were grown in HeLa or Vero cells, purified by sucrose gradient, and their virion G proteins assessed by immunoblot (FIG. 7A). For FIG. 7A, the L208A mutant G protein gene was inserted into the full-length RSV genome cDNA, in place of the wt G protein. The mutant RSV was rescued and grown in HeLa or Vero cells, purified by centrifugation through a 35% sucrose cushion, and G protein assessed as before. […] The viruses were titrated on HeLa cells and equivalent infectious units used to inoculate HeLa or HAE cultures. […] For FIG. 7B, virus was titrated on HeLa cells and equivalent infectious units were used to inoculate HAE and HeLa in parallel. Virus-infected (green) cells were counted at 24 (HeLa) or 48 (HAE) hpi.
# The full-length RSV cDNA construct, RW30 (Kwilas et al., J Virol (2010) 84:7770-7781), was used as the backbone for a modification of the G protein gene at amino acid 208 from a […] to an alanine. RW30 was digested with restriction enzymes EcoICRI and SacII (Thermo Fisher Scientific Waltham, Mass.) to remove the G gene, and the remaining vector was isolated from an 0.5% agarose gel following electrophoresis and eluted from the gel fragment with the Qiaex II gel elution kit (Qiagen, Valencia, Calif.). […]
# [2] = test system: RSV G protein cleavage in Vero cells; test: Cleavage of mutant G proteins transiently expressed in Vero cells (immunoblot); format: cell-based
# Description: The G gene in the region of amino acid 210 was modified by deleting stretches of amino acids in this region (200-211, 204-213, 206-215, 208-217, or 209-213). […] Most of the mutants almost completely ablate cleavage. They all share amino acids 208-211. However, A206-210 and A206-215, both of which bring together amino acids that can also serve as a cathepsin L cleavage site. For FIG. 6B, the mutated G protein genes were transiently expressed in Vero cells. 24 h post-transfection cells were harvested, lysed and proteins were separated by SDS-PAGE, blotted and probed with mAb to the G protein.
# To identify which amino acids are important for cleavage, individual amino acids in and around this region were changed to alanine. These mutant G proteins were transiently expressed in Vero cells and assessed by immunoblot (FIG. 6C). For FIG. 6C, the mutated G protein genes were transiently expressed in Vero cells. 24 hours post-transfection cells were harvested, lysed and proteins were separated by SDS-PAGE, blotted and probed with mAb to the G protein.
# The strain A2 G protein plasmid was mutagenized using synthetic double strand gBlock DNA (Integrated DNA Technologies). Van91I (Thermo Fisher) and Xho I (New England Biolabs) were used to digest plasmid and gBlock. Doubly-digested plasmid was isolated by agarose gel electrophoresis. Digested gBlock and eluted plasmid DNAs were ligated with T4 DNA ligase (Promega, Madison, Wis.), and transformed into One Shot MachI-T1 chemically competent bacteria (Life Technologies). Plasmids were extracted using HiSpeed or Plasmid Plus Maxi kits (Qiagen).
# Wild type G or frG proteins were expressed in HeLa or Vero cells following plasmid transfection with FuGene HD (Promega) or Lipofectamine LTX (Life Technologies), respectively, in medium containing 2% FBS. In frG experiments, medium was collected and concentrated using Ultracel-10 K centrifugal filters (EMD Millipore, Billerica, Mass.). For other transfection experiments, Vero cells were transfected using Lipofectamine 3000 (Life Technologies) in medium containing 10% FBS. For all transfection experiments, cells were lysed and protein quantified by BCA assay. Equivalent HeLa or Vero cell lysate protein and equivalent volumes of concentrated proteins from the medium were analyzed by immunoblotting.
substance,measurement,setting,value
L208: RSV strain A2 G protein with alanine substitution for L208,virion G protein cleavage,[1],prevention of G protein cleavage
same,efficiency at inhibiting cleavage (rank among alanine substitutions),[2],most efficient
same,resistance to cleavage of alanine substitution G protein mutants,[2]; 24 hours post-transfection,partially to nearly completely resistant to cleavage
